From patent publication US20220090096A1 (priority 2019, published 2022)

Experiments:
Clostridium spp. = details: cited from earlier work
[1] = system: Pfdx-rbG-botR-T1-Pntnh-catP construct integrated in the pyrE locus; type: cell-based, C. botulinum ATCC 19397 ΔClA

Cc1c2c(c(O)c3c(O)cccc13)C(=O)[C@]1(O)C(=O)C(C(N)=O)=C(O)[C@@H](N(C)C)[C@@H]1C2 [anhydrotetracycline]
effect on cell growth (Clostridium spp.): significant inhibitory effects on cell growth

Cn1c(=O)c2[nH]cnc2n(C)c1=O [theophylline]
CAT expression upon induction relative to absence of theophylline [1]: approximately 7 fold
